# Data published in patent US8592581B2, “Trisubstituted purine derivatives” (Cyclacel Limited, priority 2007, dated 2013).
# Tests used:
# [1] = test system: H460 non-small cell lung cancer (NSCLC) cell line; experiment: Alamar blue cytotoxicity assay in H460 NSCLC tumour cell line; assay type: cell-based; conditions: H460 cells, 72 hours, average of three independent experiments
# Method: (§1) In order to determine the cellular potency of the compounds, the cytotoxicity of each compound was determined against the H460 non-small cell lung cancer (NSCLC) cell line. Standard cytotoxicity methods were performed as follows: H460 cells were seeded in 96-well plates appropriately for their doubling time (3000 cells per well) in RPMI media containing 10% FCS and incubated overnight at 37° C., 5% CO2. The media was removed and 100 μl fresh media containing increasing concentrations of appropriate compound was added and the cells incubated for 72 hours at 37° C., 5% CO2. A 10% stock of alamar blue (Roche, Lewes, United Kingdom) was prepared in medium and 100 μl added to the cells which were incubated for 2 hours.
# CYP2D6 = CYP2D6 (Homo sapiens (Human), UniProt P10635); experiment: CYP2D6 inhibition, human liver microsomes, dextromethorphan; assay type: in vitro ADME
# Sequence of CYP2D6 (P10635 whole entry): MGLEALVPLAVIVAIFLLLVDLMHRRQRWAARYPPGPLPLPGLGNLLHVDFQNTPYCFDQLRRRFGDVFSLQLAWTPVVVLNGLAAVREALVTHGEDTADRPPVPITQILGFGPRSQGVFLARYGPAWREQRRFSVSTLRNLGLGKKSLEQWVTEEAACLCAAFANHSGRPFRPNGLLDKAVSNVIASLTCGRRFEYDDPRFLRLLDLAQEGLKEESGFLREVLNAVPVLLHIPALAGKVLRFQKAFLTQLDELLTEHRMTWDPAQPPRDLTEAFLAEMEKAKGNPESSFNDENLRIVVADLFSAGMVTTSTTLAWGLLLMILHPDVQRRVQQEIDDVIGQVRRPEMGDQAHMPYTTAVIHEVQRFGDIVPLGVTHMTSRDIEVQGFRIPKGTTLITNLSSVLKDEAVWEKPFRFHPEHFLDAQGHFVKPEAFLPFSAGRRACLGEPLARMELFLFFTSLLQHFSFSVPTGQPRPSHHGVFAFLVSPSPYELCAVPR
# Method: Six test compound concentrations (0.05, 0.25, 0.5, 2.5, 5, 25 μM in DMSO; final DMSO concentration=0.25%) were incubated with human liver microsomes (0.5 mg/mL) and NADPH (1 mM) in the presence of the probe substrate dextromethorphan (5 μM) for 30 min at 37° C. The selective CYP2D6 inhibitor, quinidine, was screened alongside the test compounds as a positive control.
# For the CYP1A incubations, the reactions were terminated by the addition of methanol, and the formation of the metabolite, resorufin, was monitored by fluorescence (excitation wavelength=535 nm, emission wavelength=595 nm). For the CYP2C9, CYP2C19, CYP2D6, and CYP3A4 incubations, the reactions were terminated by the addition of methanol containing internal standard. The samples were then centrifuged, and the supernatants were combined, for the simultaneous analysis of 4-hydroxytolbutamide, 4-hydroxymephenyloin, dextrorphan, and 1-hydroxymidazolam plus internal standard by LC-MS/MS using generic LC-MS/MS conditions. Formic acid in deionised water (final concentration=0.1%) was added to the final sample prior to analysis.
# Colo205 = experiment: Alamar blue cytotoxicity assay Colo205; assay type: cell-based; conditions: Homo sapiens, COLO 205; 72 hours; read-out: cellular cytotoxicity IC50 Colo205
# Method: as §1, with “a range of” for “the H460 non-small”, “lines.” for “lung cancer (NSCLC) cell line.”, “follows:” for “follows: H460”, “(2-5000” for “(3000”, “RPMI or DMEM” for “RPMI”, “hours. Absorbance was measured on the Wallac Victor 2 1420 multi-label counter at 544-595 nm.” for “hours.”
# MESSA = experiment: Alamar blue cytotoxicity assay MESSA; assay type: cell-based; conditions: Homo sapiens, MES-SA; 72 hours; read-out: cellular cytotoxicity IC50 MESSA
# Method: as §1, with “a range of” for “the H460 non-small”, “lines.” for “lung cancer (NSCLC) cell line.”, “follows:” for “follows: H460”, “(2-5000” for “(3000”, “RPMI or DMEM” for “RPMI”, “hours. Absorbance was measured on the Wallac Victor 2 1420 multi-label counter at 544-595 nm.” for “hours.”
smiles,measurement,setting,value
CC[C@H](Nc1nc(NCc2cnc(C)cc2C)c2ncn(C(C)C)c2n1)[C@@H](C)O [Compound [1]],IC50,[1],500 nM
same,IC50,"[1]; Homo sapiens, NCI-H460, 72 h",< 1000 nM
same,IC50,CYP2D6,> 25 µM
same,IC50,Colo205,310 nM
same,IC50,MESSA,160 nM
